Consider 4 compounds from patent US9289414B2 (priority 2004, dated 2016).

The test system of one data set is SVR cells. As to the kind of experiment: SVR cell proliferation / viability bioassay (angiogenic bioassay). It is filed as cell-based, murine. As to conditions: FIG. 1. As for the experimental part:
Liquid extract of coal tar was concentrated under vacuum to get crude extract (20.0 mg). This extract was applied on a Sephadex LH 20 (3.0×100 cm) column and eluted with MeOH. The elution was monitored by TLC and similar fractions are combined to get 11 fractions. This fraction was assayed for inhibition of SVR cell viability (Arbiser et al. (1999) J. Am. Acad. Dermatol. 40, 925-929; and Bai et al. (2003) J. Biol. Chem. 278, 35501-35507). […] These changes are similar to what is observed when SVR cells are treated with an EGFR tyrosine kinase inhibitor.
Coal tar fractions were tested for their ability to inhibit the proliferation of SVR cells, an established angiogenic bioassay.

Another data set concerns Drosophila embryos. Description: Normal development of Drosophila embryos. On the set-up: species or system Drosophila melanogaster. As to conditions: in vivo. As for the experimental part: (§1) In order to test whether carbazole and its derivatives affect EGFR, the compounds were tested using a novel EGFR assay that is amenable to high throughput screening.
The next data set relates to EGFR. Description: Drosophila EGFR eye phenotype assay. The class given is in vivo, Drosophila melanogaster. As to conditions: treatment of mutant Drosophila.
Source text: The epidermal growth factor receptor pathway controls cell fate throughout phylogeny. Binding of secreted ligands to EGFR on the cell surface initiates a cascade of events that ultimately invokes transcriptional changes in the nucleus. Ligand/receptor interactions are of critical importance during Drosophila eye development, as recruitment and differentiation of almost all photoreceptors are dependent on high levels of activation of the EGFR pathway. Binding of activating ligand to EGFR results in a cascade of membranous and cytoplasmic phosphorylation events.
as §1

In data set [1] the test system is signaling lymphocyte activator molecule associated protein (SAP). As to the kind of experiment: PSK-induced SAP expression in lymphocytes. It is filed as cell-based, human. Conditions: FIG. 2B.
The test system of the next data set is interleukin-15 (IL-15). Description: IL-15 production by PSK-activated mononuclear cells. The class given is cell-based, human. As to conditions: PSK-stimulated mononuclear cells, FIG. 2A. The text has this: Cytokine production by mononuclear cells plays an important role in psoriasis. One of the cardinal cytokines involved in the pathogenesis of psoriasis is interleukin-15 (IL-15). IL-15 plays several roles that may be important in psoriasis. […] In addition, IL-15 is angiogenic in vivo.

Another data set concerns Rac. Description: Rac activation in HUVEC after VEGF stimulation (PAK-1 PBD pull-down). The class given is cell-based, human. Conditions: carbazole 5 mg/ml pretreatment 1 hr, VEGF 20 ng/ml 5 min, FIG. 5. On the procedure: Cells were lysed with ice-cold lysis buffer, pH 7.5, containing 25 mmol/liter HEPES, 150 mmol/liter NaCl, 1% IGEPAL CA-630, 0.25% sodium deoxycholate, 10 mmol/liter MgCl2, 10% glycerol, 25 mmol/liter NaF, 1 mmol/liter EDTA, 1 mmol/liter sodium orthovanadate, 10 μg/ml leupeptin, 10 μg/ml aprotinin, and 1 mmol/liter phenylmethylsulfonyl fluoride. Activated (GTP-bound) Rac was affinity-precipitated with p21-activated kinase-1 protein binding domain peptide, which binds only to Rac-GTP and not Rac-GDP.
p21-Activated kinase-1 protein binding domain-agarose (7.5 μg/mg cell lysate, Upstate Biotechnology) was added, and the reaction mixture was gently rocked at 4° C. for 60 min. The agarose beads were collected by pulsing for 5 s in a microcentrifuge at 14,000×g, and the beads were washed three times with 0.5 ml of lysis buffer. The agarose beads were resuspended in 40 μl of 1×SDS sample buffer and boiled for 5 min. The supernatant was separated by SDS-PAGE on a 12% gel, and the proteins were transferred to nitrocellulose membrane. After blocking for 1 h in PBS containing 5% nonfat dry milk and 0.1% Tween 20, the membrane was incubated with anti-Rac antibody (1:1000 dilution, Upstate Biotechnology) overnight. After incubation with the secondary antibody, Rac was detected by enhanced chemiluminescence.

A further data set has as its system iNOS. As to the kind of experiment: iNOS expression, in vitro translation and Western blot of HEK293 and RAW264.7 cells. It is filed as cell-based. As to conditions: FIG. 3A-C. On the procedure:
Reactions were performed at 30° C. for 90 min. Translation products were separated by SDS/PAGE, and bands, representing ^35S-labeled iNOS, were detected by Phosphoimager (Molecular Dynamics). The data shown in FIG. 3A represent two independent experiments done in duplicates.
Transfection and stable cell line production of HEK293 cells was performed by cationic lipid-mediated transient transfection using “LipofectAMINE 2000” (Invitrogen) following manufacturer's instructions. Stable cell line expressing iNOS, were produced by using transfection of iNOS cDNA followed by positive colony selection using G418 (Invitrogen) at concentration of 600 μg/ml. iNOS Induction of mouse macrophages RAW264.7, involved incubating the cells with a mixture of mouse interferon (mIFN)-γ (10 u/ml) and LPS (100 ng/ml).
Cell lysis was performed on collected cells. After gently rinsing the cells twice with phosphate-buffered saline, the cell layer was lysed on ice for 30 min in 40 mM Bis-Tris propane buffer, pH 7.7, 150 mM NaCl, 10% glycerol, 1% Triton-X100 in the presence of protease inhibitors (phenylmethylsulfonyl fluoride (1 mM), pepstatin-A (10 μg/ml), leupeptin (10 μg/ml), aprotinin (10 μg/ml), phenanthroline (10 μg/ml), benzamidine HCl (16 μg/ml)) (PharMingen). […] Total protein concentrations were determined by using a bicinchoninic acid reagent, following the manufacturer's instructions (Pierce). […]

Take `Oc1ccc2c(c1)[nH]c1ccccc12` [2-hydroxy carbazole, 2-hydroxycarbazole]: the antiproliferative activity entry in the data set with SVR cells is “more potent antiproliferative activity”.
For the compound `Oc1ccc2[nH]c3ccccc3c2c1` [3-hydroxy carbazole, 3-hydroxycarbazole], in the data set with SVR cells, the antiproliferative activity entry was “more potent antiproliferative activity”.
In the case of `Oc1cccc2[nH]c3ccccc3c12` [4-hydroxy carbazole, 4-hydroxycarbazole], in the data set with Drosophila embryos, the “effect on normal development of Drosophila embryos” value is given as “no effect”. The “effect on eye phenotype of mutant Drosophila with active EGFR” value in the data set on EGFR is “correction of the phenotypic defect”. In addition, the antiproliferative activity entry with SVR cells was “more potent antiproliferative activity”.
Consider `c1ccc2c(c1)[nH]c1ccccc12` [carbazole, 9H-Carbazole], for which, in the data set on Drosophila embryos, the “effect on normal development of Drosophila embryos” value was “no effect”. Moreover, in data set [1], the SAP expression entry is listed as “inhibited”. Further, the “production of IL-15” value in the data set with interleukin-15 (IL-15) is on record as “inhibited production of IL-15”. In addition, the “effect on eye phenotype of mutant Drosophila with active EGFR” value in the data set with EGFR is on record as “correction of the phenotypic defect”. Moreover, the “rac activation in response to VEGF” value in the data set on Rac is given as “blocks rac activation”. In addition, the “levels of nitric oxide synthase enzyme” value in the data set on iNOS is “without affecting levels of enzyme”. The antiproliferative activity entry in the data set on SVR cells was “mild antiproliferative activity”.
